Assay type in all cases: cell-based
One experiment has as its system OCI-LY3 cells. Briefly: Resazurin cell viability (proliferation) assay in OCI-LY3 DLBCL cells. Particulars: Homo sapiens, OCI-LY3 cells (BTK independent), 72 h, 50% growth inhibition vs vehicle, read-out: OCI-LY3 Prol GI50. The protocol: (§1) Compounds of the invention were tested in the following cellular assays. The terms in Table 2 are defined as follows: DC50 refers to the concentration at which 50% maximal degradation was observed; deg Amax is the extent of degradation and the value refers to the % protein remaining at the concentration at which maximum degradation is seen; ProI GI50 refers to the proliferation data and defines the concentration at which 50% growth inhibition was observed compared to the vehicle treated control at the end of the incubation time. TMD8 cells are BTK dependent and OCI-LY3 cells are BTK independent.
(§2) Cell Viability Assay in DLBCL (Diffuse Large B-Cell Lymphoma) Cells:
(§3) The effect of the BTK compounds on cell proliferation was measured by a Resazurin (Sigma, #R7017) based cell viability assay. TMD8 (BTK compound sensitive) and OCI-LY3 (BTK compound insensitive) cells were incubated for 72 h at 37° C. and 5% CO2 with the corresponding compound, Resazurin is a non-toxic, cell-permeable substrate that is virtually non-fluorescent. Upon entering living cells, Resazurin (Sigma, #R7017) is reduced to highly fluorescent Resorufin. The metabolic activity was assessed by measuring the fluorescence signal (ex. 530 nm; em. 600 nm).
(§4) TMD8 and OCI-Ly3 cells were seeded at day 0 in triplicates at a cell density of 1×10^4 cells per 150 μl/well in a 96-well plate (Costar #3904). Additional plates were prepared, in order to assess the basal metabolic activity of both cell lines at the beginning of the experiment. For these reference plates, Resazurin (Sigma, #R7017) was added to a final concentration of 13 μg/ml 3 h post seeding and was incubated for 2 h at 37° C. and 5% CO2. Following incubation, the fluorescent signal intensity of the 96-well plates was measured on a Mithras LB940 multimode plate reader at 530/600 nm (Berthold Technologies, Germanyl).
(§5) In parallel, 3 h post-seeding, test-plates were treated with compound at various concentrations, or with vehicle (DMSO) alone for 3 days. The compound addition to the plates was performed by using a HP D300 digital dispenser (TECAN, Switzerland). The compounds were tested in triplicate, 8-point serial dilution (1:4), with a start concentration of 10 μM for OCI-LY3 and 1 μM for the TMD8 cells, respectively. To assess the relative proliferation of the cells, Resazurin was added to each well directly to the medium to a final concentration of 13 μg/ml. The plates were incubated for 2 h at 37° C. and 5% CO2 to result in a 72 h endpoint. Following incubation, the fluorescent signal intensity of the 96-well plates were measured on a Mithras LB940 multimode plate reader at 530/600 nm (Berthold Technologies, Germanyl). The formation of Resorufin dye directly correlates with the number of metabolically active cells. For each triplicate treatment the mean and standard deviation were calculated and analyzed via curve fitting software to determine the respective compound concentration resulting in 50% growth inhibition (GI50) values. For each compound GI50 values were typically determined from at least 2 entirely independent experiments.
OCI-LY3 cells were acquired through a license agreement with University Health Network, Toronto, Canada. Cells are cultivated in RPM11640 media (Gibco, #61870-010, lot. 1894759), supplemented with 10% FCS (HyClone, GE #SH30066.03, lot AB217603), 2 mM L-Glutamine (BioConcept, #5-10K50-H, lot. LA03467P), 1 mM Sodium Pyruvate (BioConcept, #5-60F00-H, lot. LB10510P), 10 mM HEPES (Gibco, #15630-056, lot. 1854074), 1% Pen/Strep (BioConcept, #4-01F00-H, lot. LB04235P).
A general note: Alamar Blue is a resazurin reagent that responds to reducing activity.

For the next experiment, the system named is TMD8 cells. Briefly: Resazurin cell viability (proliferation) assay in TMD8 DLBCL cells. The following applies: Homo sapiens, TMD8 cells (BTK dependent), 72 h, 50% growth inhibition vs vehicle, read-out: TMD8 Prol GI50. The protocol: as §1, §2, §3, §4, §5
TMD8 cells were acquired through a license agreement with Tokyo Medical and Dental University, Japan. Cells are cultivated in MEM Alpha (BioConcept, #1-23F01-1, lot. LB04262P) supplemented with 10% FCS (HyClone, GE #SH30066.03, lot AB3217603), 2 mM L-Glutamine (BioConcept, #5-10K50-H, lot. LA03467P), 1% Pen/Strep (BioConcept, #4-01F00-H, lot. LB04235P).

A further experiment deals with T1, BTK-GFP (Homo sapiens, UniProt Q06187+Q96SW2).
T1 construct: expressed in transfected cells; host or cells: HEK293A (Invitrogen R70507), lentiviral transduction with pLenti6-BTK-GFP-Ires-RFP, blasticidin selection
Put plainly: BTK-GFP protein abundance flow cytometry assay in HEK293A cells. Particulars: HEK293A BTK-GFP-iresRFP cells, 24 h; for DC50: GFP signal by flow cytometry, concentration at which 50% maximal degradation was observed; for BTK deg Amax: % protein remaining at the concentration at which maximum degradation is seen. The protocol: as §1
BTK-GFP and IKZF3-GFP protein abundance flow cytometry assay in HEK293A cells:
Degradation of BTK or IKZF3 was measured in HEK293A cells (Invitrogen R70507) expressing either BTK-GFP and RFP or IKZF3-GFP and RFP from a stably integrated bicistronic BTK-GFP-iresRFP or IKZF3-GFP-iresRFP construct, respectively. Reduction of the GFP signal measured by flow cytometry served as readout for BTK or IKZF3 degradation after degrader treatment.
i) Cloning of the pLenti6-BTK-GFP-1Res-RFP and IKZF3-GFP-Ires-RFP Sensor Vectors
The bicistronic BTK-GFP-iresRFP construct is based on a pLenti6-DEST vector backbone where GFP was introduced into the unique Xho1 site downstream of the destination cassette (DEST) and RFP was cloned behind an internal ribosomal entry site (Ires).
In detail, the sensor construct was engineered by replacing NanoLuciferase (NLuc) by GFP and FireFly luciferase (FF) by RFP from pLenti6-DEST-NLuc-Ires-FF.
The pLenti6-DEST-NLuc-Ires-FF sensor construct was cloned by replacing eGFP from pLenti6-DEST-ires-eGFP with a synthesized stuffer element (encoding Ires-FF with FF flanked by two Nhe1 restriction sites) using blunt end cloning replacing Ires-eGFP between the two PmII. To enable C-terminal tagging with NanoLuciferase (NLuc), NLuc was amplified from pNL1.1 (Promega #N1001) using linker primers with Xho1 sites for ligating into linearized pLenti6-DEST-Ires-FF using Xho1 digest resulting in the construct pLenti6-DEST-NLuc-Ires-FF.
The pLenti6-DEST-NLuc-Ires-FF served as base vector for cloning pLenti6-DEST-GFP-Ires-RFP using Gibson assembly to replace FF with RFP and NLuc with GFP. In a first round FF was replaced by RFP by amplifying RFP from a template using the following Gibson assembly linker primers (Gibson-Nhe1 RFPfw, […]gctagc[…] (SEQ ID NO: 1); Gibson-Nhe1 RFP-Stoprev, […]ctagc[…] (SEQ ID NO: 2)) to clone into pLenti6-DEST-NLuc-Ires-FF digested with Nhe1 and gel-purified to remove the FF fragment. The resulting pLenti6-DEST-NLuc-Ires-RFP vector served as the template to replace NLuc with GFP by amplifying GFP from a template using following Gibson assembly linker primers (Gibson-Xho1 GFPfw, […]c[…] (SEQ ID NO: 3); Gibson-Xho1 GFP-Stoprev, […] (SEQ ID NO: 4)) to clone into pLenti6-DEST-NLuc-Ires-RFP digested with Xho1 and gel-purified to remove the NLuc fragment. All Gibson assembly reactions were performed with Gibson assembly Master Mix (New England Biolabs NEB E261 IL) according to manufacturer's manual, resulting in the destination vector pLenti6-DEST-GFP-Ires-RFP to allow Gateway cloning. To enable gateway cloning and C-terminal GFP tagging of BTK, the BTK open reading frame (ORF) was first shuttled from a pcDNA-DEST40-BTK vector (Invitrogen library ID INV_20090504v1) into pDONR221 (Invitrogen 12536-017) vector using a gateway BP reaction according to the manufacturer's manual (Invitrogen 11789-013) resulting in the novel construct pENTR221-BTK. For C-terminal tagging the STOP codon was mutated to a leucine performing a mutagenesis reaction with the following primers (pENTR221-BTK Quikchange STOP-Leu fw, gtcatggatgaagaatccTTGaacccagctttcttgtac; pENTR221-BTK Quikchange STOP-Leu REVC, gtacaagaaagctgggttCAAggattcttcatccatgac) using the QuikChange Lightning mutagenesis kit (Agilent Technologies #210518) according to the manufacturer's manual, resulting in pENTR221-BTK (STOP-Leu). […]
(A flow cytometer gives signals particle by particle.)

We go through six compounds from US12441733B2, “Substituted 2,4-dioxotetrahydropyrimidines as intermediates in the synthesis of bruton's tyrosine kinase inhibitors” (Novartis AG, priority 2018, dated 2025).

As a reminder, the GI50 is the concentration giving 50% growth inhibition. The DC50 is the concentration at which degradation of the target reaches its halfway point. Read a high DC50 as degradation only at high concentration.

Bounds are passed on as bounds.

T1 sequence (Q06187 whole entry): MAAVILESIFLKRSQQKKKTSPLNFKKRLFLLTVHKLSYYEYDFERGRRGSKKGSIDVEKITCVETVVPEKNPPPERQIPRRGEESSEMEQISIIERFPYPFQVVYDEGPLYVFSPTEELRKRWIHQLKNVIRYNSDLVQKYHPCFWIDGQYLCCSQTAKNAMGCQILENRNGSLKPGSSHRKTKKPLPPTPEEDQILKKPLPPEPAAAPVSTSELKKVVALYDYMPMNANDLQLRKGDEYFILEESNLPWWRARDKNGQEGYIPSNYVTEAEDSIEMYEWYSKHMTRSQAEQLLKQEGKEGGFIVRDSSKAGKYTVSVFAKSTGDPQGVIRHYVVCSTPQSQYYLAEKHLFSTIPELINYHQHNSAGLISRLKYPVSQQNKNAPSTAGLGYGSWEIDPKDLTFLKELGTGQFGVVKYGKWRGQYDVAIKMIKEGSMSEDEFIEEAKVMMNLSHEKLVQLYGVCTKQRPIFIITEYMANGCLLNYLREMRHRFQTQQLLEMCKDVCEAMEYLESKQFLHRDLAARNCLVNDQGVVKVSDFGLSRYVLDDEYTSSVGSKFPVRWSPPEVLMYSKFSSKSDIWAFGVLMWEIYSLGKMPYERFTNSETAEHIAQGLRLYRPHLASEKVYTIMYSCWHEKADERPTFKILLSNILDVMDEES
T1 sequence (Q96SW2 whole entry): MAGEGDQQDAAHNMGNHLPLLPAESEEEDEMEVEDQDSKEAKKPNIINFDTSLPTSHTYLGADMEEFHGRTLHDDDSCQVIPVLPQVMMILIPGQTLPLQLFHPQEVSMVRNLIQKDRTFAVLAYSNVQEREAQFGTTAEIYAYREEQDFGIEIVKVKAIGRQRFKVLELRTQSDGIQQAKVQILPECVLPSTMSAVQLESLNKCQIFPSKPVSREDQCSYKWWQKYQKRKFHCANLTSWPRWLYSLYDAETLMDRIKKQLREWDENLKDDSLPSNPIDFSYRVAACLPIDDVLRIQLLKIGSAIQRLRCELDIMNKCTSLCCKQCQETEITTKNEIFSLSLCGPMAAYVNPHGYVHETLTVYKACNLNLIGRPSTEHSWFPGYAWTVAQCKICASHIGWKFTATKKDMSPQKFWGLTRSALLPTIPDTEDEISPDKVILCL
T1 sequence (Q16531 whole entry partner): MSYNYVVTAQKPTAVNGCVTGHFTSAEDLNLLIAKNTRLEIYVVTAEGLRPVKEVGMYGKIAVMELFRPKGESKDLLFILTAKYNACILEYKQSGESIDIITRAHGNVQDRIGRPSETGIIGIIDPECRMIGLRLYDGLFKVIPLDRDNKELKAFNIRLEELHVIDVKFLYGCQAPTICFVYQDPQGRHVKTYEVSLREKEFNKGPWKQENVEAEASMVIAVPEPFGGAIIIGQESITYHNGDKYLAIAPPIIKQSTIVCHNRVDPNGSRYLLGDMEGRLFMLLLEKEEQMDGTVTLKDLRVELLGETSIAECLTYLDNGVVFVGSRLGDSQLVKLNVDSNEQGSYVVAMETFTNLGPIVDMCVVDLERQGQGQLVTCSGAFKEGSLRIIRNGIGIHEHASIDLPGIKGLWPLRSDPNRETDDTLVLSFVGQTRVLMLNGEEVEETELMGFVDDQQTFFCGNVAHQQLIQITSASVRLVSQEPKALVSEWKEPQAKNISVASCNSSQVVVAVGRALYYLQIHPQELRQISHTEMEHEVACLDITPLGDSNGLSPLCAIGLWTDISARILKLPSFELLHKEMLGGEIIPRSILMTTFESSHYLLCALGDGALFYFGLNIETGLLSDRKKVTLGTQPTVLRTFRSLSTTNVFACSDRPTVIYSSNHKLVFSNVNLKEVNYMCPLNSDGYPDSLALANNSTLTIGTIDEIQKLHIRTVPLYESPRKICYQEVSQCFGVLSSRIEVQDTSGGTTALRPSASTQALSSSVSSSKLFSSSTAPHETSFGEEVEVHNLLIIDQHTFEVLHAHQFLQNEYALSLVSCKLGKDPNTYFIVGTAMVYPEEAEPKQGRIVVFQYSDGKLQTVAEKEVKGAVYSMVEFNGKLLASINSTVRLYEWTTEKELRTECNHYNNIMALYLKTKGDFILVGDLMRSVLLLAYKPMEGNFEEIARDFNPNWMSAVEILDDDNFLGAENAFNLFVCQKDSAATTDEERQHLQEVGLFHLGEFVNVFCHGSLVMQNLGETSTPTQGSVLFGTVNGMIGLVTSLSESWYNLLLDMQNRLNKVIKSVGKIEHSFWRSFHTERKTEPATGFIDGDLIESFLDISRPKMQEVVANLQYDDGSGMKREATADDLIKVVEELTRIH

Consider `COc1ccc(C(=O)N2CCC(CN3CCN(Cc4ccc(-c5cc6c(-c7cc(F)cc(NC(=O)c8ccc(C(C)(C)O)cc8F)c7C)ncnc6[nH]5)cc4)CC3)CC2)cc1N1CCC(=O)NC1=O` [Compound 7, N-(3-(6-(4-((4-((1-(3-(2,4-Dioxotetrahydropyrimidin-1(2H)-yl)-4-methoxybenzoyl)piperidin-4-yl)methyl)piperazin-1-yl)methyl)phenyl)-7H-pyrrolo[2,3-d]pyrimidin-4-yl)-5-fluoro-2-methylphenyl)-2-fluoro-4-(2-hydroxypropan-2-yl)benzamide], for which the GI50 worked out at 6120 nM in the experiment with OCI-LY3 cells and 0.39 nM in the experiment on TMD8 cells. Besides, half-maximal degradation on BTK-GFP (DC50) was put at 0.7 nM. At BTK-GFP, the “BTK deg Amax” value amounted to 3.3%.

On to `Cc1ccc(C(=O)N2CCC(OC3CCN(CCc4ccc(-c5cc6c(-c7cc(F)cc(NC(=O)c8ccc(C(C)(C)O)cc8F)c7C)ncnc6[nH]5)cc4)CC3)CC2)cc1N1CCC(=O)NC1=O` [Compound 10, N-(3-(6-(4-(2-(4-((1-(3-(2,4-Dioxotetrahydropyrimidin-1(2H)-yl)-4-methylbenzoyl)piperidin-4-yl)oxyl)piperidin-1-yl)ethyl)phenyl)-7H-pyrrolo[2,3-d]pyrimidin-4-yl)-5-fluoro-2-methylphenyl)-2-fluoro-4-(2-hydroxypropan-2-yl)benzamide], for which the GI50 with OCI-LY3 cells is 5940 nM. Further, the GI50 with TMD8 cells was determined as 0.36 nM. Also, at BTK-GFP, half-maximal degradation (DC50) was put at 0.7 nM and the “BTK deg Amax” value was determined as 2.3%.

`COc1ccc(C(=O)N2CCC3(CCN(CCCc4ccc(-c5cc6c(-c7cc(F)cc(NC(=O)c8ccc(C(C)(C)O)cc8F)c7C)ncnc6[nH]5)cc4)CC3)CC2)cc1N1CCC(=O)NC1=O` [Compound 11, N-(3-(6-(4-(3-(9(3-(2,4-Dioxotetrahydropyrimidin-1(2H)-yl)-4-methoxybenzoyl)-3,9-diazaspiro[5.5]undecan-3-yl)propyl)phenyl)-7H-pyrrolo[2,3-d]pyrimidin-4-yl)-5-fluoro-2-methylphenyl)-2-fluoro-4-(2-hydroxypropan-2-yl)benzamide]: the GI50 with OCI-LY3 cells is over 10000 nM. The GI50 with TMD8 cells was found to be 0.84 nM. Besides, on BTK-GFP, the DC50 worked out at 5 nM and the “BTK deg Amax” value came out at 4.7%.

For `COc1ccc(C(=O)N2CCC(CCN3CCC(OCc4ccc(-c5cc6c(-c7cc(F)cc(NC(=O)c8ccc(C(C)(C)O)cc8F)c7C)ncnc6[nH]5)cc4)CC3)CC2)cc1N1CCC(=O)NC1=O` [Compound 13, N-(3-(6-(4-(((1-(2-(1-(3-(2,4-Dioxotetrahydropyrimidin-1(2H)-yl)-4-methoxybenzoyl)piperidin-4-yl)ethyl)piperidin-4-yl)oxyl)methyl)phenyl)-7H-pyrrolo[2,3-d]pyrimidin-4-yl)-5-fluoro-2-methylphenyl)-2-fluoro-4-(2-hydroxypropan-2-yl)benzamide], the GI50 in the experiment with OCI-LY3 cells was determined as 3390 nM; with TMD8 cells it was 0.18 nM. The compound also yielded a DC50 at BTK-GFP of 0.8 nM. On BTK-GFP, the “BTK deg Amax” value turned out to be 1.8%.

For the compound `COc1ccc(C(=O)N2CCC(CCCN3CCC(Oc4ccc(-c5cc6c(-c7cc(F)cc(NC(=O)c8ccc(C(C)(C)O)cc8F)c7C)ncnc6[nH]5)cc4)CC3)CC2)cc1N1CCC(=O)NC1=O` [Compound 15, N-(3-(6-(4-((1-(3-(1-(3-(2,4-Dioxotetrahydropyrimidin-1(2H)-yl)-4-methoxybenzoyl)piperidin-4-yl)propyl)piperidin-4-yl)oxyl)phenyl)-7H-pyrrolo[2,3-d]pyrimidin-4-yl)-5-fluoro-2-methylphenyl)-2-fluoro-4-(2-hydroxypropan-2-yl)benzamide], the GI50 with OCI-LY3 cells is 3380 nM. Moreover, the GI50 with TMD8 cells stood at 0.56 nM. Besides, on BTK-GFP, half-maximal degradation (DC50) was put at 0.4 nM and the “BTK deg Amax” value is 1.6%.

For `COc1ccc(C(=O)N2CCN(CCN3CCN(Cc4ccc(-c5cc6c(-c7cc(F)cc(NC(=O)c8ccc(C(C)(C)O)cc8F)c7C)ncnc6[nH]5)cc4)CC3)CC2)cc1N1CCC(=O)NC1=O` [Compound 16, N-(3-(6-(4-((4-(2-(4-(3-(2,4-Dioxotetrahydropyrimidin-1(2H)-yl)-4-methoxybenzoyl)piperazin-1-yl)ethyl)piperazin-1-yl)methyl)phenyl)-7H-pyrrolo[2,3-d]pyrimidin-4-yl)-5-fluoro-2-methylphenyl)-2-fluoro-4-(2-hydroxypropan-2-yl)benzamide], in the experiment on OCI-LY3 cells, the GI50 is over 10000 nM. Besides, in the experiment on TMD8 cells, the GI50 was 0.67 nM. Further, at BTK-GFP, the DC50 stood at 4.2 nM and the “BTK deg Amax” value stood at 4.1%.
